Experimental data from patent US9771369B2, “Compounds and methods for kinase modulation, and indications therefor” (Plexxikon Inc., priority 2014, dated 2017).

Experiments:
[1] = molecular target: c-kit mutant D816V (Homo sapiens (Human), UniProt P10721, D816V/DEL694-753); test: c-Kit mutant D816V biochemical assay (AlphaScreen kinase activity)
Procedure: The c-kit mutant D816V (or kinase domain thereof) is an active kinase in AlphaScreen. IC50 values are determined with respect to inhibition of c-Kit mutant D816V kinase activity, where inhibition of phosphorylation of a peptide substrate is measured as a function of compound concentration. Compounds to be tested were dissolved in DMSO to a concentration of 30 mM. These were diluted […] of DMSO (4 mM) and 1 μl was added to an assay plate. These were then serially diluted 1:3 (50 μl to […] DMSO) for a total of 8 points. Plates were prepared such that each kinase reaction is […] in 1× kinase buffer (25 mM HEPES, pH 7.2, 8 mM MgCl2, 2 mM MnCl2, 50 mM NaCl, 0.01% Brij, 1 mM DTT, 0.01% BSA), 5% DMSO and 10 μM ATP. Substrate was 30 nM biotin-(E4Y)10 (EMD Millipore, Cat#12-440). C-kit mutant D816V kinase was at 0.75 ng per sample. After incubation of the kinase reaction for 30 minutes at room temperature, 5 μl of donor beads (Streptavidin coated beads (Perkin Elmer Life Science) final concentration 7.5 μg/ml) in stop buffer (25 mM Hepes pH 7.5, 100 mM EDTA, 0.01% BSA) was added, the sample was mixed and incubated for 30 minutes at room temperature before adding […] of acceptor beads (PY30 coated beads (Perkin Elmer Life Science) final concentration 7.5 μg/ml) in stop buffer. The samples were incubated for 60 minutes at room temperature and the signal per well was read on EnVision reader. Phosphorylated substrate results in binding of the PY30 antibody and association of the donor and acceptor beads such that signal correlates with kinase activity. The signal vs. compound concentration was used to determine the IC50.
Recombinant c-kit mutant D816V (residues 551-934, kinase insertion domain residues 694-753 deleted) with a 6×-histidine N-terminal tag (SEQ ID NO: 3) was expressed in E. coli Arctic Express (DE3) RIL (Stratagene). Cells were grown in Terrific Broth (TB) media to an OD600 of 0.6 at 37° C. at which temperature was reduced to 10° C., protein was induced with 1.0 mM IPTG for 18 hours and harvested by centrifugation at 8000×g for 30 minutes. Cells were re-suspended in 0.1M KPO4 pH 8.0, 250 mM NaCl, 10% Glycerol, 0.75% NP-40, 25 mM Imidazole, 5 mM BME with 0.2 mg/ml Lysosyme, 2.0 mM PMSF, 25 μg/ml DNAse I, incubated in ice for 30 minutes and lyzed with a cell disruptor (MicroFluidics). The lysate was clarified by centrifugation at 30,000×g for 2 hours. The protein was captured with Talon resin (Clontech). Contaminating proteins were washed off with 25 mM Tris-HCl pH 8.3, 250 mM NaCl, 15% Glycerol, 1% Triton X-100, and protein eluted using 100 mM EDTA. The protein was further purified using Gel Filtration column 26/600 Superdex 300 (GE) in 50 mM Tris-HCl , pH 8.0, 250 mM NaCl, 15% Glycerol, 5 mM BME. The protein was aliquoted and flash-frozen in liquid Nitrogen.

[2] = system: BaF3-FL KIT D816V or BaF3-FL KIT V560G/D816V cell line; test: Cell-based assays of c-Kit mutant kinase activity (cell proliferation, ATPlite); conditions: at least one of the c-kit cell assays of Example 7
Procedure: The c-Kit mutant D816V inhibitors were assessed using an engineered BaF3-FL KIT D816V or BaF3-FL KIT V560G/D816V cell line. The BaF3-FL KIT D816V cell lines were created by introduction of KIT mutant (D816V) full length constructs that render the cells dependent on the introduced kinase for growth. Inhibitors of c-Kit mutant D816V kinase reduce or eliminate the mediated c-kit mutant D816V kinase activation, resulting in reduced cell proliferation of the BaF3-FL Kit mutant D816V cells. This inhibition is measured by the effect of compound concentration on cell growth to assess IC50 values. BaF3-FL KIT D816V cells were seeded at 1×10^4 cells per well of a 96 well cell culture plate in 50 μl of cell culture medium of RPMI Medium 1× (Invitrogen #11875-093) supplemented with 10% FBS (Invitrogen #10438), 1% Non Essential Amino Acids (Invitrogen #11140), 1% Penicillin Streptomycin (Invitrogen #15140), 1% L-Glutamine (Invitrogen #25030-081). Compounds were dissolved in DMSO at a concentration of 5 mM and were serially diluted 1:3 for a total of eight points and added to the cells to a final maximum concentration of 10 μM in 100 μl cell culture medium (final concentration 0.2% DMSO). Cells were also treated with Dasatinib as a positive control. The cells were incubated at 37° C., 5% CO2 for three days. ATPlite Buffer (Perkin Elmer #6016739) and substrate were equilibrated to room temperature, and enzyme/substrate Recombinant Firefly Luciferase/D-Luciferin was reconstituted. The cell plates were equilibrated to room temperature for 30 minutes, then lysed by addition of 25 μL per well of the ATPlite Reagent. The plate was mixed for 5 minutes on a plate shaker to lyse the cells. The plates were read on a Tecan Safire using Luminescence protocol modified to read 0.1s per well. The luminescence reading assesses the ATP content, which correlates directly with cell number such that the reading as a function of compound concentration is used to determine the IC50 value.
Plasmids P75635 and P75565 were engineered for mammalian cell expression. In both plasmids, full-length human v-kit Hardy-Zuckerman 4 feline sarcoma viral oncogene homolog gene (NCBI accession NM_000222, KIT, residues M1-V976) was subcloned into the pCI-Neo vector (Promega E1841). Plasmid P75635 contains the mutation of residue Aspartic acid 816 to Valine. Plasmid P75565 contains the double mutation of residues Valine 560 to Glycine and Aspartic acid 816 to Valine. The pCI-neo Mammalian Expression Vector carries the human cytomegalovirus (CMV) immediate-early enhancer/promoter region to promote constitutive expression of KIT and contains the neomycin phosphotransferase gene, a selectable marker.
It is understood that the results of these assays may vary as assay conditions are varied. Inhibition levels determined under the conditions described herein represent a relative activity for the compounds tested under the specific conditions employed. The cell based assays are likely to show variability due to the complexity of the system and the sensitivity thereof to any changes in the assay conditions. […] In some instances, the compounds were not tested in all of the assays, or assay results were not valid.

Sequence of c-kit mutant D816V (P10721 other isoform, or with tags, fused parts or gaps D816V/del 694-753): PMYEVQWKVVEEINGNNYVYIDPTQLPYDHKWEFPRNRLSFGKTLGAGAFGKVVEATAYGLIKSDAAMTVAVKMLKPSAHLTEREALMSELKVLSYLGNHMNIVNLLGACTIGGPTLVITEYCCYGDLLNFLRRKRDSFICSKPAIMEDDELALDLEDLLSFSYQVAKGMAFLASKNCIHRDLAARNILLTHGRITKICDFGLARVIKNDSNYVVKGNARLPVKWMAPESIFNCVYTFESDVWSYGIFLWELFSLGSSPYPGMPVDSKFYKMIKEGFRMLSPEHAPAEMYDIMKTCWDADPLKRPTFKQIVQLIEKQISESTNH

Cc1nc(C2CCN(c3ncnc4[nH]c(-c5ccc(F)cc5)cc34)CC2)[nH]c1-c1ccc2c(c1)OC(F)(F)O2 [P-3109, 4-[4-[5-(2,2-difluoro-1,3-benzodioxol-5-yl)-4-methyl-1H-imidazol-2-yl]-1-piperidyl]-6-(4-fluorophenyl)-7H-pyrrolo[2,3-d]pyrimidine]
IC50 [1]: 0.0001 to 1 µM | IC50 [2]: < 10 µM

Cc1nc(C2CCN(c3ncnc4[nH]c(-c5ccc(C#N)cc5)cc34)CC2)[nH]c1-c1ccc2c(c1)OC(F)(F)O2 [P-3110, 4-[4-[4-[5-(2,2-difluoro-1,3-benzodioxol-5-yl)-4-methyl-1H-imidazol-2-yl]-1-piperidyl]-7H-pyrrolo[2,3-d]pyrimidin-6-yl]benzonitrile]
IC50 [1]: 0.0001 to 1 µM | IC50 [2]: < 10 µM

COc1cc(-c2cc3c(N4CCC(c5nc(C)c(-c6ccc7c(c6)OC(F)(F)O7)[nH]5)CC4)ncnc3[nH]2)ccn1 [P-3111, 4-[4-[5-(2,2-difluoro-1,3-benzodioxol-5-yl)-4-methyl-1H-imidazol-2-yl]-1-piperidyl]-6-(2-methoxy-4-pyridyl)-7H-pyrrolo[2,3-d]pyrimidine]
IC50 [1]: 0.0001 to 1 µM | IC50 [2]: < 10 µM

COc1ccc(-c2[nH]c(C3CCN(c4ncnc5[nH]c(-c6ccc(C#N)cc6)cc45)CC3)nc2C)cn1 [P-3112, 4-[4-[4-[5-(6-methoxy-3-pyridyl)-4-methyl-1H-imidazol-2-yl]-1-piperidyl]-7H-pyrrolo[2,3-d]pyrimidin-6-yl]benzonitrile]
IC50 [1]: 0.0001 to 1 µM | IC50 [2]: < 10 µM

Cc1nc(C2CCN(c3ncnc4[nH]c(-c5ccc(C#N)cc5)cc34)CC2)[nH]c1-c1ccc(OC(F)F)cc1 [P-3113, 4-[4-[4-[5-[4-(difluoromethoxy)phenyl]-4-methyl-1H-imidazol-2-yl]-1-piperidyl]-7H-pyrrolo[2,3-d]pyrimidin-6-yl]benzonitrile]
IC50 [1]: 0.0001 to 1 µM | IC50 [2]: < 10 µM

COc1cccc(-c2[nH]c(C3CCN(c4ncnc5[nH]c(-c6cnn(C(F)F)c6)cc45)CC3)nc2C)c1 [P-3114, 6-[1-(difluoromethyl)pyrazol-4-yl]-4-[4-[5-(3-methoxyphenyl)-4-methyl-1H-imidazol-2-yl]-1-piperidyl]-7H-pyrrolo[2,3-d]pyrimidine]
IC50 [1]: 0.0001 to 1 µM | IC50 [2]: < 10 µM

Cc1nc(C2CCN(c3ncnc4[nH]c(-c5cnn(C(F)F)c5)cc34)CC2)[nH]c1-c1ccc(OC(F)F)cc1 [P-3115, 4-[4-[5-[4-(difluoromethoxy)phenyl]-4-methyl-1H-imidazol-2-yl]-1-piperidyl]-6-[1-(difluoromethyl)pyrazol-4-yl]-7H-pyrrolo[2,3-d]pyrimidine]
IC50 [1]: 0.0001 to 1 µM | IC50 [2]: < 10 µM

Cc1nc(C2CCN(c3ncnc4[nH]c(-c5cnn(C(F)F)c5)cc34)CC2)[nH]c1-c1ccc(OC(F)(F)F)cc1 [P-3116, 6-[1-(difluoromethyl)pyrazol-4-yl]-4-[4-[4-methyl-5-[4-(trifluoromethoxy)phenyl]-1H-imidazol-2-yl]-1-piperidyl]-7H-pyrrolo[2,3-d]pyrimidine]
IC50 [1]: 0.0001 to 1 µM | IC50 [2]: < 10 µM

COc1cc(-c2cc3c(N4CCC(c5nc(C)c(-c6ccc(C)s6)[nH]5)CC4)ncnc3[nH]2)ccn1 [P-3117, 6-(2-methoxy-4-pyridyl)-4-[4-[4-methyl-5-(5-methyl-2-thienyl)-1H-imidazol-2-yl]-1-piperidyl]-7H-pyrrolo[2,3-d]pyrimidine]
IC50 [1]: 0.0001 to 1 µM | IC50 [2]: < 10 µM

Cc1ccc(-c2[nH]c(C3CCN(c4ncnc5[nH]c(-c6ccc(F)cc6)cc45)CC3)nc2C)s1 [P-3118, 6-(4-fluorophenyl)-4-[4-[4-methyl-5-(5-methyl-2-thienyl)-1H-imidazol-2-yl]-1-piperidyl]-7H-pyrrolo[2,3-d]pyrimidine]
IC50 [1]: 0.0001 to 1 µM | IC50 [2]: < 10 µM

Cc1nc(C2CCN(c3ncnc4[nH]c(-c5ccc(F)cc5)cc34)CC2)[nH]c1-c1ccc(Cl)s1 [P-3119, 4-[4-[5-(5-chloro-2-thienyl)-4-methyl-1H-imidazol-2-yl]-1-piperidyl]-6-(4-fluorophenyl)-7H-pyrrolo[2,3-d]pyrimidine]
IC50 [1]: 0.0001 to 1 µM | IC50 [2]: < 10 µM

Cc1cc2c(N3CCC(c4nc(C)c(-c5ccc6c(c5)OCO6)[nH]4)CC3)ncnc2[nH]1 [P-3120, 4-[4-[5-(1,3-benzodioxol-5-yl)-4-methyl-1H-imidazol-2-yl]-1-piperidyl]-6-methyl-7H-pyrrolo[2,3-d]pyrimidine]
IC50 [1]: 1 to 10 µM | IC50 [2]: < 10 µM

Cc1cc2c(N3CCC(c4nc(C)c(-c5ccc6c(c5)OCCO6)[nH]4)CC3)ncnc2[nH]1 [P-3121, 4-[4-[5-(2,3-dihydro-1,4-benzodioxin-6-yl)-4-methyl-1H-imidazol-2-yl]-1-piperidyl]-6-methyl-7H-pyrrolo[2,3-d]pyrimidine]
IC50 [1]: 0.0001 to 1 µM | IC50 [2]: < 10 µM

Cc1nn(C)cc1-c1cc2c(N3CCC(c4nc(C)c(-c5ccc(OC(F)(F)F)cc5)[nH]4)CC3)ncnc2[nH]1 [P-3122, 6-(1,3-dimethylpyrazol-4-yl)-4-[4-[4-methyl-5-[4-(trifluoromethoxy)phenyl]-1H-imidazol-2-yl]-1-piperidyl]-7H-pyrrolo[2,3-d]pyrimidine]
IC50 [1]: 0.0001 to 1 µM | IC50 [2]: < 10 µM

COc1cccc(-c2[nH]c(C3CCN(c4ncnc5[nH]c(-c6ccnc(OC)c6)cc45)CC3)nc2C(F)(F)F)c1 [P-3123, 4-[4-[5-(3-methoxyphenyl)-4-(trifluoromethyl)-1H-imidazol-2-yl]-1-piperidyl]-6-(2-methoxy-4-pyridyl)-7H-pyrrolo[2,3-d]pyrimidine]
IC50 [1]: 0.0001 to 1 µM | IC50 [2]: < 10 µM

COc1cccc(-c2[nH]c(C3CCN(c4ncnc5[nH]c(-c6ccc(C#N)cc6)cc45)CC3)nc2C(F)(F)F)c1 [P-3124, 4-[4-[4-[5-(3-methoxyphenyl)-4-(trifluoromethyl)-1H-imidazol-2-yl]-1-piperidyl]-7H-pyrrolo[2,3-d]pyrimidin-6-yl]benzonitrile]
IC50 [1]: 0.0001 to 1 µM | IC50 [2]: < 10 µM
